The numbers were not newly measured in US8177778B2, “System and method for stabilizing corneal tissue after treatment” (Avedro, Inc., priority 2009, dated 2012), which cites them from elsewhere.

Each structure is given as a SMILES string.

This data set relates to corneal wound healing. To be noted: rabbits after excimer laser PRK ablation, M6P drop vs control drop.

For `O=C[C@@H](O)[C@@H](O)[C@H](O)[C@H](O)COP(=O)(O)O` [M6P, Mannose 6-phosphate], the subepithelial collagen entry is listed as “less subepithelial collagen”. Also, the corneal haze entry (at 4 weeks) is listed as “significant reduction in corneal haze”.
